# Test results: US7767398B2, “Means and methods for diagnosing and treating affective disorders” (Affectis Pharmaceuticals AG, priority 2003, dated 2010)
# How the values were obtained:
# P2X7R [1] = target: T1, P2X7R (Rattus norvegicus, UniProt Q64663); conditions: concentrations of 10 to 300 μM; cited from earlier work
# T1 sequence (Q64663 1-595): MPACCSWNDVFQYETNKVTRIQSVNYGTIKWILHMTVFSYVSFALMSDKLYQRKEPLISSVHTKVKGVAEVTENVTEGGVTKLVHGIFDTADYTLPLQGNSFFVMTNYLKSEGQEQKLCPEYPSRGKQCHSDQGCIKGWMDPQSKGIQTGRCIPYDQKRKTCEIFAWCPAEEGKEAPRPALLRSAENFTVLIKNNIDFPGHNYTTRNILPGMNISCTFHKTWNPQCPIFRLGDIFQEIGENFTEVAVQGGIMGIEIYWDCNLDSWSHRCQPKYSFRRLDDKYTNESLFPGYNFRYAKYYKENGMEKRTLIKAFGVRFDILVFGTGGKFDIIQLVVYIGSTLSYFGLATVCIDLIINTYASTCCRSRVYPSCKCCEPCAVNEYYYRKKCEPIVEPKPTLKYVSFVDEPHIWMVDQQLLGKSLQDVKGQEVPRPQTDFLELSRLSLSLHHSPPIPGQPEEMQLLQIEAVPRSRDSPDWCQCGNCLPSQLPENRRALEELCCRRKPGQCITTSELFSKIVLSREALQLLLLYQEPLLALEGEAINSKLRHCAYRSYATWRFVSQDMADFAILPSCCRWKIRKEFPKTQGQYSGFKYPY
# P2X7R [2] = conditions: cited from earlier work
# other P2X receptors = conditions: cited from earlier work
# mice = test: Porsolt's forced swim test; type: in vivo, mouse
# Protocol: Further validation of role of P2X7R in affective disorders was performed by examining its expression pattern in response to stress and treatment with antidepressant drugs. […] In parallel, a control group of mice was given vehicle solution (i.e. without paroxetine) using the same treatment regiment while a second control group of mice was left undisturbed and stress-free (i.e. untreated) during the same period of the experiments. At the end of the long-term treatment, part of the mice of each experimental group were tested in the dark/light box (test of anxiety behaviour) and in the Porsolt's forced swim test (test of depressive-like behaviour) to confirm the effectiveness of the treatment (FIG. 5). […] The other part of the experimental groups (i.e. mice without test experience) were decapitated, brains rapidly removed and frozen at −80° C. until usage.
# The effects of P2X7R inhibition on depressive-like behaviour was assessed 24 hours and 48 hours after infusion of siRNA, control or vehicle according to the standard test paradigm, the Porsolt's forced swim test (Porsolt et al., Arch. Int. Pharmacodym. 229 (1977), 327-336; Porsolt, Rev. Neurosci. 11 (2000), 53-58). […] Compared to vehicle application, no influence of control double stranded RNA (5′-[…]-3′) on floating behaviour (passive stress coping) was detected. […] This interpretation becomes moreover evident when the effects of antidepressants on passive stress coping behaviour in the forced swim test are visualized (FIG. 5). Passive stress coping behaviour increased after acute intrahippocampal injection (bilateral, dentate gyrus) of siRNA targeting P2X7R. The Porsolt's forced swim test is a standard test used to assess the effectiveness of antidepressants and it has been proven by many studies that the test is selectively sensitive for these effects, given that the right animal model is used. The paradigm has been widely used to test pharmaceutical compounds and to validate animal models of depression, which show an increase in passive behaviour as do the mice where P2X7R has been inhibited (siRNA).
# The forced swim test is a standard test that measures primary stress-induced reductions in avoidance or escape, termed behavioural despair. The test is used to determine the effectiveness of antidepressants, test new pharmaceutical compounds and validate animal models of depression (Porsolt et al., Arch. Int. Pharmacodym. 229 (1977), 327-336; Porsolt, Rev. Neurosci. 11 (2000), 53-58; Rénéric et al., Behav. Brain Res. 136 (2002), 521-532; Page et al., Psychopharmacology 165 (2003), 194-201; Kelliher et al., Psychoneuroendocrinology 28 (2003), 332-347). The test consists of placing a mouse for a period of 5 minutes into a glass cylinder containing water. Under such circumstances, the mouse cannot touch the bottom of the cylinder and is thus forced to swim. Time, latency and frequency of struggling versus floating are scored as behavioural parameters. […] Increased struggling (i.e. active attempts to escape) indicates active coping behaviour that can be interpreted as an improvement of depression-like symptoms. For example, treatment with serotonergic antidepressants reduce the total time spent floating (Borsini, Neurosci. Biobehav. Rev. 19 (1995), 377-395; Redrobe and Bourin, Psychopharmacology 138 (1998), 198-206, and in parallel increases the time of active behaviour (i.e. swimming or struggling; Lucki et al., Psychopharmacology 155 (2001), 315-322).
# The behaviour of individual mice was assessed using the Porsolt's forced swim test 24 hours after injection of vehicle solution, KN-62, or oATP. A pre-exposure of 5 minutes to the test was performed 15-17 minutes after administration of vehicle, KN-62, or oATP. A description of the Porsolt's forced swim test is given in example 9. […]
# human P2X7R = target: T2, human P2X7R (Homo sapiens, UniProt Q99572); test: Calcium entry in HT-22 cells overexpressing human P2X7R (Fluo-4 AM); type: cell-based; conditions: 20 μM BzATP or 50 μM tenidap
# T2 construct: expressed in transfected cells
# T2 sequence (Q99572 1-595): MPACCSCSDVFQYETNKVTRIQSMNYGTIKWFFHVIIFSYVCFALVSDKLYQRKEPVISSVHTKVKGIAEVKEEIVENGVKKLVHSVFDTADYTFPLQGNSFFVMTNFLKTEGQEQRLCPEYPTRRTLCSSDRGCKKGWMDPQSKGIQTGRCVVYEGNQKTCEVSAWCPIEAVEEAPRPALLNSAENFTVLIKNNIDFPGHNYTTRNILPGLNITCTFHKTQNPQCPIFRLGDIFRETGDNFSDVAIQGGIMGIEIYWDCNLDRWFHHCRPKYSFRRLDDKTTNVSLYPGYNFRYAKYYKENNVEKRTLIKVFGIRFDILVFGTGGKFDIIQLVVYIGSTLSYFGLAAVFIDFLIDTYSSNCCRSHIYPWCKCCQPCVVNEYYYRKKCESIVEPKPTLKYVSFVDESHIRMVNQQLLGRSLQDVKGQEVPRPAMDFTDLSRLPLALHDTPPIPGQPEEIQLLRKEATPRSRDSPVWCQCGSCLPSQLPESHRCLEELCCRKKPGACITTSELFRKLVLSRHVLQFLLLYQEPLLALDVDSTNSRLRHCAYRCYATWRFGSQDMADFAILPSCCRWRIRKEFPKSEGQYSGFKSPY
# Description: Yet another method for identifying P2X7R agonists was devised by generating a immortalised mouse cell line that overexpresses the human P2X7R gene under the control of the human cytomegalovirus (CMV) early promoter/enhancer region. The human P2X7R cDNA was inserted into the pcDNA3.1 vector (Invitrogen) and transfected into the mouse hippocampal cell line HT-22 using Lipofectamine (Invitrogen) according to the manufacturer's specifications. One day after transfection, culture medium containing 500 μg/ml G418 was added to the cells. Resistant clones were separately isolated and cultured 14 days after applying the selection medium.
# The agonistic activity of a compound was evaluated by measuring calcium entry in the cells that overexpress the human P2X7R. Cells were cultured in 96 well plates and incubated at 37° C. with 5% C02 DMEM with 10% foetal calf serum (Gibco) until they reached confluence. Cells were then loaded for one hour with 10 μM of Fluo4 AM (Molecular Probes). Fluo-4 AM is a fluorescent dye that binds to intracellular calcium. […] Agonist activity was detected by measuring an increase in calcium influx which results in increased binding to Fluo4 AM and increased fluorescence. Changes in fluorescence signal are measured using a Fluostar Optima plate reader (BMG biotech). […] Thus, both compound stimulated the activity of P2X7R which results in an influx of ions into the cells.
# P2X7R [3] = type: in vivo, mouse
# Protocol: The brains from stress-free mice were shock frozen, cut into 16 μm slices and fixed with paraformaldehyde for 5 minutes. The sections were blocked for 30 minutes at room temperature with 1:10 horse serum. All antibodies were diluted in TBST buffer (Tris-buffered saline with 0.05% Tween-20). The first antibody was used in a dilution 1:200 and incubated overnight. All washes were performed with TBST buffer. As a secondary antibody, an anti-goat IgG biotinylated (Vector Laboratories) was used and detection was performed using the streptavidin-biotin-horse-radish peroxidase complex system (Vector Laboratories) in combination with diaminobencidine. Slides were counterstained with toluidine blue using standard procedures. The same procedure in the absence of the primary antibody was performed as a negative control. As a positive control to test the Preservation of the tissue was verified with an antibody specific for the protein Patched1 (Santa Cruz Biotechnology). Patched1 was used as positive control since it stains all relevant brain structures and is not affected by stress or antidepressants.
# At the end of the experiment, the mice were sacrificed and the brains were examined to confirm the location and efficiency of the siRNA injections. For this purpose the brains were cut into sections and the slides were stained by immunohistochemistry using the above mentioned protocols. […]
# [4] = 100 nM KN-62 or 10 μM oATP, 1 μl each side, dentate gyrus, 24 hours after injection, DBA/201a mice
compound,measurement,setting,value
CC(C)NCC(O)COc1cccc2ccccc12 (racemic) [DL-propanolol],opening of the cation channel activity of P2X7R,P2X7R [1],without affecting
same,pore-forming activity of P2X7R,P2X7R [1],inhibit the pore-forming activity
Nc1ncnc2c1ncn2[C@@H]1O[C@H](COP(=O)(O)OP(=O)(O)OP(=O)(O)O)[C@@H](O)[C@H]1O [ATP],levels of ATP required to achieve activation of P2X7R,P2X7R [2],> 1 mM
same,ATP concentrations at which other P2X receptors activate,other P2X receptors,≤ 100 µM
CC(C)NC[C@@H](O)COc1cccc2ccccc12 [D-propanolol],opening of the cation channel activity of P2X7R,P2X7R [1],without affecting
same,pore-forming activity of P2X7R,P2X7R [1],inhibit the pore-forming activity
"CN([C@@H](Cc1ccc(OS(=O)(=O)c2cccc3cnccc23)cc1)C(=O)N1CCN(c2ccccc2)CC1)S(=O)(=O)c1cccc2cnccc12 [KN-62, 1-(N,O-bis[5-isoquinolinesulphonyl]-N-methyl-L-tyrosyl)-4-phenylpiperazine]","active escape attempts (time, frequency, latency of struggling) in the forced swim test",mice; [4],no changes
same,"passive behaviour (time, frequency, latency of floating) in the forced swim test",mice; [4],no changes
CC(CCc1ccccc1)NCC(O)c1ccc(O)c(C(N)=O)c1 (stereo not drawn) [labetolol],opening of the cation channel activity of P2X7R,P2X7R [1],without affecting
same,pore-forming activity of P2X7R,P2X7R [1],inhibit the pore-forming activity
Fc1ccc([C@@H]2CCNC[C@H]2COc2ccc3c(c2)OCO3)cc1 [paroxetine],passive stress coping behaviour (floating) in the forced swim test,"mice; paroxetine by gavage, 10 mg/kg bodyweight twice per day, 28 days, male mice",decreased
"NC(=O)N1C(=O)/C(=C(\O)c2cccs2)c2cc(Cl)ccc21 [tenidap, 5-chloro-2,3-dihydro-2-oxo-3-(2-thienylcarbonyl)-indole-1-carboxamide]",calcium influx (Fluo-4 AM fluorescence intensity),human P2X7R,rapid increase in fluorescence intensity
"P2X7R specific siRNA: double stranded siRNA, 5′-GUGGGUCUUGCACAUGAUCTT-3′ and 5′-GAUCAUGUGCAAGACCCACTT-3′ annealed (chemistry not given here)",floating behaviour (passive stress coping) in the forced swim test,"mice; intrahippocampal bilateral (dentate gyrus), 0.1 nmol/μl, 1 μl per side, 24 hours and 48 hours after infusion",significant increase in passive behaviour
same,local inflammation or infiltration at the hippocampus,"P2X7R [3]; mouse, in vivo",did not produce any sign of local inflammation or infiltration
same,inhibition of P2X7R protein expression,"P2X7R [3]; siRNA injected near the dentate gyrus, compared to vehicle or control double stranded RNA",80%
